Source: ChEMBL document CHEMBL4808208, “Hepatoselective Dihydroquinolizinone Bis-acids for HBsAg mRNA Degradation” (ACS Med Chem Lett, 2021)
“And” between values parts separate entries of the source, which are not always exact repeats. Equal entries are not always repeated.

How the values were obtained:
[1] = Cytotoxicity against human HepG2.2.15 cells assessed as reduction in cell viability measured after 4 days by CellTiter-Glo reagent based assay; parameters: species or system HepG2 2.2.15; settings: time 4 day
[2] = molecular target: Terminal nucleotidyltransferase 4A (Homo sapiens) (UniProt Q5XG87); assay: Inhibition of human PAPD7 expressed in HEK293 cells assessed as inhibition of poly-adenylation reaction using P32-labeled RNA oligonucleotides (5'-GCCUUUCAUCUCUAACUGCGAAAAAAAAAA-3') as substrate measured for 3 hrs by phosphor imaging analysis; format: cell-based; settings: dose 0.37-10 µM
[3] = Efflux ratio of apparent permeability in MDCK-MDR1 cells at 1 uM after 120 mins by LC-MS/MS analysis; format: ADME, cell-based, Canis lupus familiaris; settings: dog
[4] = Apparent permeability of the compound across apical to basolateral side in human Caco-2 cells at 10 uM incubated for 1 hr; format: ADME, cell-based
[5] = Apparent permeability of the compound across basolateral to apical side in human Caco-2 cells at 10 uM incubated for 1 hr; format: ADME, cell-based
[6] = Efflux ratio of apparent permeability in human Caco-2 cells at 10 uM incubated for 1 hr; format: ADME, cell-based
Cytochrome P450 2C8 = molecular target: T1, Cytochrome P450 2C8 (Homo sapiens, UniProt P10632); assay: Inhibition of CYP2C8 in human liver microsomes using paclitaxel as substrate preincubated for 5 mins followed by NADPH addition by LC-MS/MS analysis; format: ADME
T1 sequence (P10632 whole entry): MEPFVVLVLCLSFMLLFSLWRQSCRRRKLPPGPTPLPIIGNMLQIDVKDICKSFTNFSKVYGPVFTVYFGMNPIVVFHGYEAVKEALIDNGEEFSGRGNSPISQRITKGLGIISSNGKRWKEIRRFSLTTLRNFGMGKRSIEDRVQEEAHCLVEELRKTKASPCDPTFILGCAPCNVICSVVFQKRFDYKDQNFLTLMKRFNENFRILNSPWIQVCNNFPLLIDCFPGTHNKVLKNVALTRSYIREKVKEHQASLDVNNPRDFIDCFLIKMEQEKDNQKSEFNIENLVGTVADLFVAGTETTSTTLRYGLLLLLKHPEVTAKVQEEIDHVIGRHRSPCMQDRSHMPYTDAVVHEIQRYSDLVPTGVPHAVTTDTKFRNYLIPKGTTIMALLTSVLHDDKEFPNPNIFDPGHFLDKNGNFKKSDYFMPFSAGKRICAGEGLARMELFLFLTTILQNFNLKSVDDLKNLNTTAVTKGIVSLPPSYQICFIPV

Cytochrome P450 2C19 = Cytochrome P450 2C19 (Homo sapiens, UniProt P33261); assay: Inhibition of CYP2C19 in human liver microsomes using mephenytoin as substrate preincubated for 5 mins followed by NADPH addition by LC-MS/MS analysis; format: ADME
Cytochrome P450 2E1 = Cytochrome P450 2E1 (Homo sapiens, UniProt P05181); assay: Inhibition of CYP2E1 in human liver microsomes using chlorzoxazone as substrate preincubated for 5 mins followed by NADPH addition by LC-MS/MS analysis; format: ADME
[7] = Half life in CD-1 mouse liver at 8 mg/kg, po measured for 24 hrs by LC-MS/MS analysis; format: ADME, organism-based
[8] = Cmax in CD-1 mouse liver at 8 mg/kg, po measured for 24 hrs by LC-MS/MS analysis; format: ADME, organism-based; parameters: route oral, dose 8 mg/kg, time 24 hrs
[9] = AUC (last) in CD-1 mouse plasma at 3 mg/kg, iv measured for 24 hrs by LC-MS/MS analysis; format: ADME, organism-based; parameters: route intravenous, time 24 hrs, dose 3 mg/kg
[10] = Drug concentration in CD-1 mouse liver at 8 mg/kg, po measured after 2 hrs by LC-MS/MS analysis; format: ADME, organism-based; settings: read-out: Ct

Cytochrome P450 2E1, sequence (P05181 whole entry): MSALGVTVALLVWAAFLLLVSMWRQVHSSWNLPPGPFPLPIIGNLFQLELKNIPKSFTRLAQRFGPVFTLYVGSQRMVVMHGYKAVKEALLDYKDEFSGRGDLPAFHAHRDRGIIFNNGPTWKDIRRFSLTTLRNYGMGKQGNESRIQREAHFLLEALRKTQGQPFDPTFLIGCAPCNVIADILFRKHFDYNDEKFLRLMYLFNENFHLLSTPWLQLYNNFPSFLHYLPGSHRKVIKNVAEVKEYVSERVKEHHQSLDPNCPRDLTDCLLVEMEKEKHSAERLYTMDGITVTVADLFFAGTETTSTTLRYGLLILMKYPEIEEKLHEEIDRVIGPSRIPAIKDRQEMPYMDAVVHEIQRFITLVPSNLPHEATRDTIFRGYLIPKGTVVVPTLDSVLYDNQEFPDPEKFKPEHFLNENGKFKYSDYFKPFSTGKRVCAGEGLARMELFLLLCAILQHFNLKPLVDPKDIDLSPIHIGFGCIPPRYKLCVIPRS
Cytochrome P450 2C19, sequence (P33261 whole entry): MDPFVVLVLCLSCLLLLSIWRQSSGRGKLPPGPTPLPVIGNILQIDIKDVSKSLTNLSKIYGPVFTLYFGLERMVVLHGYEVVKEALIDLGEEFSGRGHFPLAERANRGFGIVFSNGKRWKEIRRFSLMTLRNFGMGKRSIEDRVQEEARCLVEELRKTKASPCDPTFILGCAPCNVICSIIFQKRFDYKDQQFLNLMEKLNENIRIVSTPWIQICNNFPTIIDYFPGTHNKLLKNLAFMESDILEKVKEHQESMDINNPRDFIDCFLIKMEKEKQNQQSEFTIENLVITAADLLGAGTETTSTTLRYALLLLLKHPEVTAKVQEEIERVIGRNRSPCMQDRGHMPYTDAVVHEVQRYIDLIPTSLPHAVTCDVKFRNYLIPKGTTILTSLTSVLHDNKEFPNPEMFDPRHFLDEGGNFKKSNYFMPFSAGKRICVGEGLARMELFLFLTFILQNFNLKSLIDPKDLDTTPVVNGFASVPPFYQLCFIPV
Terminal nucleotidyltransferase 4A (Homo sapiens), sequence (Q5XG87 whole entry): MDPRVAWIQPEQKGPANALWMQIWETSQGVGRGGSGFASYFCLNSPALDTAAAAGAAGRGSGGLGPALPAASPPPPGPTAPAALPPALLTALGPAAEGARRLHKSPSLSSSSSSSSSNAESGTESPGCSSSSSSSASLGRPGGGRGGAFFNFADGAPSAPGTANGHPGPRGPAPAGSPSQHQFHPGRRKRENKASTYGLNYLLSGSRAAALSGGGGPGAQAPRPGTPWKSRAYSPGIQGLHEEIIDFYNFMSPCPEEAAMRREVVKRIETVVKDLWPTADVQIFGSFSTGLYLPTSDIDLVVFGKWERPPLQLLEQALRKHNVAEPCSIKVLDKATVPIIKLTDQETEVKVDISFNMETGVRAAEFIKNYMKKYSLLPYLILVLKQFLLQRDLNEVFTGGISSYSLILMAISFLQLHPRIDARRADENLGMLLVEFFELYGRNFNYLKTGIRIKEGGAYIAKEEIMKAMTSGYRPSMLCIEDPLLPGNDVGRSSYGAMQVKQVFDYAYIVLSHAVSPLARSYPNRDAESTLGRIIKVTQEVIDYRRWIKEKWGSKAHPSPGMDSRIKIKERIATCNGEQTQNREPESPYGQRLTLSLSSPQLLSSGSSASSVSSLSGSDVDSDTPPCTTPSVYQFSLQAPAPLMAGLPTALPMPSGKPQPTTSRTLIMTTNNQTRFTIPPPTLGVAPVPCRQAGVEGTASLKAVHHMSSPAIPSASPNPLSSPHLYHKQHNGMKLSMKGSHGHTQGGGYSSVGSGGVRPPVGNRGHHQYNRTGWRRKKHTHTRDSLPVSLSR

COc1cc2c(cc1OCCCCCCC(=O)O)C[C@@H](C(C)C)n1cc(C(=O)O)c(=O)cc1-2
CC50 at 96 h [1]: > 10 µM | inhibition [2]: Dose-Dependent Effect | efflux ratio at 2 h, 1 µM [3]: 1.47 | Papp A→B at 1 h, 10 µM [4]: 0.39 ×10⁻⁶ cm/s | Papp B→A at 1 h, 10 µM [5]: 2.06 ×10⁻⁶ cm/s | efflux ratio at 1 h, 10 µM [6]: 5.3 | IC50 (Cytochrome P450 2C8): > 10 µM | IC50 (Cytochrome P450 2C19): > 10 µM | IC50 (Cytochrome P450 2E1): > 10 µM | half-life [7]: 3.54 h | Cmax [8]: 333 ng/mL | AUC(0-t) at 24 h [9]: 255 ng·h/mL | concentration at 2 h [10]: 261 ng/mL and 570 nM
